PubChem BioAssay AID2060503 (Molecular Pharmacology Branch, DTP, NCI, 2025)

Each compound was assayed on 817829-284-R-J1-PDC complex spheroids, viability (assay: Anticancer human tumor 817829-284-R-J1-PDC patient-derived colon adenocarcinoma cell line growth inhibition [GQUAD]). Conditions: second compound 1 µM; first compound 0.316 µM; active compounds read low.
Summary of the method: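 Multi-cell-type spheroids of tumor cells with HUVEC and mesenchymal stem cells, treated with drug combinations. Concentrations descend in half-log steps from near clinical Cmax, or from 10 microM where Cmax is unknown; viability read-out.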
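Also: spheroids exposed to agents for 7 days before readout; percent viability relative to DMSO vehicle control taken as 100%.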

| SMILES | viability, T/C [%] |
| --- | --- |
| C=CC(=O)N1CCN(c2nc(=O)n(-c3c(C)ccnc3C(C)C)c3nc(-c4c(O)cccc4F)c(F)cc23)C(C)C1 (configuration not stated) + Cc1cnc(CNC(=O)c2c(=O)c3ccc(N4CCCN(C)CC4)nc3n3c2sc2ccccc23)cn1 | 22.6 |
| CC(C)n1c(=O)n(C)c2cnc3cc(F)c(-c4ccc(OCCCN5CCCCC5)nc4)cc3c21 + Cc1cnc(CNC(=O)c2c(=O)c3ccc(N4CCCN(C)CC4)nc3n3c2sc2ccccc23)cn1 | 21.9 |
| COc1ccc([C@@H](O)c2cc(-c3ncnc4cc(N5CCOCC5)ccc34)c(F)cc2Cl)nn1 + Cc1cnc(CNC(=O)c2c(=O)c3ccc(N4CCCN(C)CC4)nc3n3c2sc2ccccc23)cn1 | 25.1 |
| Nc1ccn(C2OC(CO)C(O)C2(F)F)c(=O)n1 (configuration not stated) + Cc1cnc(CNC(=O)c2c(=O)c3ccc(N4CCCN(C)CC4)nc3n3c2sc2ccccc23)cn1 | 7.69 |
| O=C(c1cc(Cc2n[nH]c(=O)c3ccccc23)ccc1F)N1CCN(C(=O)C2CC2)CC1 + Cc1cnc(CNC(=O)c2c(=O)c3ccc(N4CCCN(C)CC4)nc3n3c2sc2ccccc23)cn1 | 20.3 |
| O=c1[nH]cc(F)c(=O)[nH]1 + Cc1cnc(CNC(=O)c2c(=O)c3ccc(N4CCCN(C)CC4)nc3n3c2sc2ccccc23)cn1 | 23.5 |

Same assay, conditions: second compound 1 µM; first compound 1 µM; active compounds read low

| SMILES | viability, T/C [%] |
| --- | --- |
| COc1ncnc(C2CC2)c1-c1ncc2cnn(Cc3ccc(-c4nc(C(F)(F)F)cn4C(C)C)cc3)c2n1 + Cc1[nH]c2ccc(F)cc2c1-c1nc2c3cccnc3c3ncccc3c2[nH]1 | 98.9 |
| C=CC(=O)N1CCN(c2nc(=O)n(-c3c(C)ccnc3C(C)C)c3nc(-c4c(O)cccc4F)c(F)cc23)C(C)C1 (configuration not stated) + Cc1cnc(CNC(=O)c2c(=O)c3ccc(N4CCCN(C)CC4)nc3n3c2sc2ccccc23)cn1 | 21.1 |
| CC(C)n1c(=O)n(C)c2cnc3cc(F)c(-c4ccc(OCCCN5CCCCC5)nc4)cc3c21 + Cc1cnc(CNC(=O)c2c(=O)c3ccc(N4CCCN(C)CC4)nc3n3c2sc2ccccc23)cn1 | 23.1 |
| COc1ccc([C@@H](O)c2cc(-c3ncnc4cc(N5CCOCC5)ccc34)c(F)cc2Cl)nn1 + Cc1cnc(CNC(=O)c2c(=O)c3ccc(N4CCCN(C)CC4)nc3n3c2sc2ccccc23)cn1 | 17.7 |
| Nc1ccn(C2OC(CO)C(O)C2(F)F)c(=O)n1 (configuration not stated) + Cc1cnc(CNC(=O)c2c(=O)c3ccc(N4CCCN(C)CC4)nc3n3c2sc2ccccc23)cn1 | 5.93 |
| O=C(c1cc(Cc2n[nH]c(=O)c3ccccc23)ccc1F)N1CCN(C(=O)C2CC2)CC1 + Cc1cnc(CNC(=O)c2c(=O)c3ccc(N4CCCN(C)CC4)nc3n3c2sc2ccccc23)cn1 | 22.8 |
| O=c1[nH]cc(F)c(=O)[nH]1 + Cc1cnc(CNC(=O)c2c(=O)c3ccc(N4CCCN(C)CC4)nc3n3c2sc2ccccc23)cn1 | 24.8 |

Same assay, conditions: second compound 1 µM; first compound 3.16 µM; active compounds read low

| SMILES | viability, T/C [%] |
| --- | --- |
| COc1ncnc(C2CC2)c1-c1ncc2cnn(Cc3ccc(-c4nc(C(F)(F)F)cn4C(C)C)cc3)c2n1 + Cc1[nH]c2ccc(F)cc2c1-c1nc2c3cccnc3c3ncccc3c2[nH]1 | 108 |
| C=CC(=O)N1CCN(c2nc(=O)n(-c3c(C)ccnc3C(C)C)c3nc(-c4c(O)cccc4F)c(F)cc23)C(C)C1 (configuration not stated) + Cc1cnc(CNC(=O)c2c(=O)c3ccc(N4CCCN(C)CC4)nc3n3c2sc2ccccc23)cn1 | 24.3 |
| CC(C)n1c(=O)n(C)c2cnc3cc(F)c(-c4ccc(OCCCN5CCCCC5)nc4)cc3c21 + Cc1cnc(CNC(=O)c2c(=O)c3ccc(N4CCCN(C)CC4)nc3n3c2sc2ccccc23)cn1 | 24.2 |
| COc1ccc([C@@H](O)c2cc(-c3ncnc4cc(N5CCOCC5)ccc34)c(F)cc2Cl)nn1 + Cc1cnc(CNC(=O)c2c(=O)c3ccc(N4CCCN(C)CC4)nc3n3c2sc2ccccc23)cn1 | 18.2 |
| Nc1ccn(C2OC(CO)C(O)C2(F)F)c(=O)n1 (configuration not stated) + Cc1cnc(CNC(=O)c2c(=O)c3ccc(N4CCCN(C)CC4)nc3n3c2sc2ccccc23)cn1 | 4.41 |
| O=C(c1cc(Cc2n[nH]c(=O)c3ccccc23)ccc1F)N1CCN(C(=O)C2CC2)CC1 + Cc1cnc(CNC(=O)c2c(=O)c3ccc(N4CCCN(C)CC4)nc3n3c2sc2ccccc23)cn1 | 23.1 |
| O=c1[nH]cc(F)c(=O)[nH]1 + Cc1cnc(CNC(=O)c2c(=O)c3ccc(N4CCCN(C)CC4)nc3n3c2sc2ccccc23)cn1 | 22.9 |

Same assay, conditions: second compound 1 µM; first compound 10 µM; active compounds read low

| SMILES | viability, T/C [%] |
| --- | --- |
| COc1ncnc(C2CC2)c1-c1ncc2cnn(Cc3ccc(-c4nc(C(F)(F)F)cn4C(C)C)cc3)c2n1 + Cc1[nH]c2ccc(F)cc2c1-c1nc2c3cccnc3c3ncccc3c2[nH]1 | 118 |
| C=CC(=O)N1CCN(c2nc(=O)n(-c3c(C)ccnc3C(C)C)c3nc(-c4c(O)cccc4F)c(F)cc23)C(C)C1 (configuration not stated) + Cc1cnc(CNC(=O)c2c(=O)c3ccc(N4CCCN(C)CC4)nc3n3c2sc2ccccc23)cn1 | 19.6 |
| CC(C)n1c(=O)n(C)c2cnc3cc(F)c(-c4ccc(OCCCN5CCCCC5)nc4)cc3c21 + Cc1cnc(CNC(=O)c2c(=O)c3ccc(N4CCCN(C)CC4)nc3n3c2sc2ccccc23)cn1 | 8.09 |
| COc1ccc([C@@H](O)c2cc(-c3ncnc4cc(N5CCOCC5)ccc34)c(F)cc2Cl)nn1 + Cc1cnc(CNC(=O)c2c(=O)c3ccc(N4CCCN(C)CC4)nc3n3c2sc2ccccc23)cn1 | 12.7 |
| Nc1ccn(C2OC(CO)C(O)C2(F)F)c(=O)n1 (configuration not stated) + Cc1cnc(CNC(=O)c2c(=O)c3ccc(N4CCCN(C)CC4)nc3n3c2sc2ccccc23)cn1 | 2.57 |
| O=C(c1cc(Cc2n[nH]c(=O)c3ccccc23)ccc1F)N1CCN(C(=O)C2CC2)CC1 + Cc1cnc(CNC(=O)c2c(=O)c3ccc(N4CCCN(C)CC4)nc3n3c2sc2ccccc23)cn1 | 23.4 |
| O=c1[nH]cc(F)c(=O)[nH]1 + Cc1cnc(CNC(=O)c2c(=O)c3ccc(N4CCCN(C)CC4)nc3n3c2sc2ccccc23)cn1 | 21.4 |

Same assay, conditions: second compound 3.16 µM; first compound 0.0316 µM; active compounds read low

| SMILES | viability, T/C [%] |
| --- | --- |
| COc1ncnc(C2CC2)c1-c1ncc2cnn(Cc3ccc(-c4nc(C(F)(F)F)cn4C(C)C)cc3)c2n1 + Cc1[nH]c2ccc(F)cc2c1-c1nc2c3cccnc3c3ncccc3c2[nH]1 | 63.5 |
| C=CC(=O)N1CCN(c2nc(=O)n(-c3c(C)ccnc3C(C)C)c3nc(-c4c(O)cccc4F)c(F)cc23)C(C)C1 (configuration not stated) + Cc1cnc(CNC(=O)c2c(=O)c3ccc(N4CCCN(C)CC4)nc3n3c2sc2ccccc23)cn1 | 21.8 |
| CC(C)n1c(=O)n(C)c2cnc3cc(F)c(-c4ccc(OCCCN5CCCCC5)nc4)cc3c21 + Cc1cnc(CNC(=O)c2c(=O)c3ccc(N4CCCN(C)CC4)nc3n3c2sc2ccccc23)cn1 | 16.6 |
| COc1ccc([C@@H](O)c2cc(-c3ncnc4cc(N5CCOCC5)ccc34)c(F)cc2Cl)nn1 + Cc1cnc(CNC(=O)c2c(=O)c3ccc(N4CCCN(C)CC4)nc3n3c2sc2ccccc23)cn1 | 21.2 |
| Nc1ccn(C2OC(CO)C(O)C2(F)F)c(=O)n1 (configuration not stated) + Cc1cnc(CNC(=O)c2c(=O)c3ccc(N4CCCN(C)CC4)nc3n3c2sc2ccccc23)cn1 | 15 |
| O=C(c1cc(Cc2n[nH]c(=O)c3ccccc23)ccc1F)N1CCN(C(=O)C2CC2)CC1 + Cc1cnc(CNC(=O)c2c(=O)c3ccc(N4CCCN(C)CC4)nc3n3c2sc2ccccc23)cn1 | 18.1 |
| O=c1[nH]cc(F)c(=O)[nH]1 + Cc1cnc(CNC(=O)c2c(=O)c3ccc(N4CCCN(C)CC4)nc3n3c2sc2ccccc23)cn1 | 21.8 |

Same assay, conditions: second compound 3.16 µM; first compound 0.1 µM; active compounds read low

| SMILES | viability, T/C [%] |
| --- | --- |
| COc1ncnc(C2CC2)c1-c1ncc2cnn(Cc3ccc(-c4nc(C(F)(F)F)cn4C(C)C)cc3)c2n1 + Cc1[nH]c2ccc(F)cc2c1-c1nc2c3cccnc3c3ncccc3c2[nH]1 | 73.5 |
| C=CC(=O)N1CCN(c2nc(=O)n(-c3c(C)ccnc3C(C)C)c3nc(-c4c(O)cccc4F)c(F)cc23)C(C)C1 (configuration not stated) + Cc1cnc(CNC(=O)c2c(=O)c3ccc(N4CCCN(C)CC4)nc3n3c2sc2ccccc23)cn1 | 21.3 |
| CC(C)n1c(=O)n(C)c2cnc3cc(F)c(-c4ccc(OCCCN5CCCCC5)nc4)cc3c21 + Cc1cnc(CNC(=O)c2c(=O)c3ccc(N4CCCN(C)CC4)nc3n3c2sc2ccccc23)cn1 | 18.5 |
